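Cells were grown in 96-well plates and exposed to each compound for 48 hours at five concentrations; endpoints were interpolated linearly between bracketing concentrations, or set to the highest concentration if not reached. The concentration for full growth arrest is given as TGI.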
Legend:
Assay in all cases: NCI tumour cell line growth inhibition, 48 h
EKVX NSCLC = tested on: EKVX NSCLC
SK-OV-3 ovarian = tested on: SK-OV-3 ovarian
SK-MEL-2 melanoma = tested on: SK-MEL-2 melanoma
ACHN renal = tested on: ACHN renal
HT29 colon = tested on: HT29 colon
SW-620 colon = tested on: SW-620 colon
MDA-MB-435 = tested on: MDA-MB-435
HL-60(TB) leukemia = tested on: HL-60(TB) leukemia
OVCAR-3 ovarian = tested on: OVCAR-3 ovarian
MDA-MB-231 breast = tested on: MDA-MB-231 breast
U251 CNS = tested on: U251 CNS
MOLT-4 leukemia = tested on: MOLT-4 leukemia
NCI-H460 lung = tested on: NCI-H460 lung
MCF7 breast = tested on: MCF7 breast
NCI-H23 lung = tested on: NCI-H23 lung
HCT-15 colon = tested on: HCT-15 colon
K-562 leukemia = tested on: K-562 leukemia
MALME-3M melanoma = tested on: MALME-3M melanoma
A498 renal = tested on: A498 renal

Row | Structure (SMILES) | TGI (EKVX NSCLC) [µM] | TGI (SK-OV-3 ovarian) [µM] | TGI (SK-MEL-2 melanoma) [µM] | TGI (ACHN renal) [µM] | TGI (HT29 colon) [µM] | TGI (SW-620 colon) [µM] | TGI (MDA-MB-435) [µM] | TGI (HL-60(TB) leukemia) [µM] | TGI (OVCAR-3 ovarian) [µM] | TGI (MDA-MB-231 breast) [µM] | TGI (U251 CNS) [µM] | TGI (MOLT-4 leukemia) [µM] | TGI (NCI-H460 lung) [µM] | TGI (MCF7 breast) [µM] | TGI (NCI-H23 lung) [µM] | TGI (HCT-15 colon) [µM] | TGI (K-562 leukemia) [µM] | TGI (MALME-3M melanoma) [µM] | TGI (A498 renal) [µM]
1 | CC(=O)C1C(=O)C(=O)N(c2ccc([N+](=O)[O-])cc2)C1=O (stereo not given) | > 100 | > 100 | > 100 | > 100 | > 100 | > 100 | > 100 | > 100 | > 100 | > 100 | > 100 | > 100 | > 100 | > 100 | > 100 | > 100 |  |  | 
2 | CCNC1=C(NC(=O)c2ccccc2)C(=O)c2ccccc2C1=O |  | > 100 |  |  | 82.5 | > 100 | 19.4 | > 100 | 85.3 | > 100 | > 100 | > 100 | > 100 | > 100 | > 100 | > 100 | > 100 | 43 | 
3 | COc1ccc(-c2csc(Cc3nc4c(Br)cc(Br)cc4c(=O)n3-c3ccc(OC)cc3)n2)cc1 | > 100 | > 100 | > 100 | > 100 | > 100 | > 100 | > 100 |  | > 100 | > 100 | > 100 | > 100 | > 100 | > 100 | > 100 | > 100 |  |  | > 100
4 | OCCCCn1cc(Cn2ncc3c(NCc4ccccc4)ncnc32)nn1 | > 100 | > 100 | > 100 | > 100 | > 100 | > 100 | > 100 |  | > 100 | > 100 | > 100 | > 100 | > 100 | > 100 | > 100 | > 100 | > 100 | > 100 | > 100
5 | CCOC(=O)c1c(N2CCCC2)[nH]c(=O)c(C(c2ccc(Cl)c([N+](=O)[O-])c2)c2c(O)c(C(=O)OCC)c(N3CCCC3)[nH]c2=O)c1O | > 100 | > 100 |  | > 100 |  | > 100 | > 100 |  | > 100 | 50.5 | 36.9 | > 100 | > 100 | > 100 | 48.9 | > 100 | > 100 | 84.6 | > 100
6 | Nc1cc2ncnn2c(SCC(=O)N/N=C/C(Br)=C\c2ccccc2)n1 | > 100 |  |  | 62.7 | 28 | 30.5 | 30.9 | 62.4 | 40.5 | 40 | 20.7 | 71.7 | 53.5 | 38.8 | 33.1 | 37.1 | > 100 | 28.3 | 
7 | CCOC(=O)CSC1NC(C(=O)OC)CC1OC (stereo not given) | > 100 | > 100 | > 100 | > 100 | > 100 | > 100 | > 100 |  | > 100 | > 100 | > 100 | > 100 | > 100 | > 100 | > 100 | > 100 | > 100 | > 100 | > 100
8 | O=C1c2ccccc2C(=O)c2c(NC(=O)C3CC3)ccc(NC(=O)C3CC3)c21 | > 100 |  | > 100 | > 100 | > 100 | > 100 | > 100 | > 100 | > 100 | > 100 | > 100 | > 100 | > 100 | > 100 | > 100 | > 100 | > 100 | > 100 | > 100
9 | C=CCOCn1cc(F)c(=O)[nH]c1=O | > 100 | > 100 |  | > 100 | > 100 | > 100 | > 100 | > 100 |  | > 100 |  | > 100 | > 100 | > 100 | > 100 | > 100 | > 100 | > 100 | > 100
10 | Nc1ncc(C=O)c(NCC2(CO)CCC2)n1 |  |  | > 100 |  | > 100 | > 100 | > 100 | > 100 | > 100 | > 100 | > 100 | > 100 | > 100 | > 100 | > 100 | > 100 | > 100 | > 100 | > 100
11 | O=C(CSCC(=O)N/N=C\c1ccc(O)c(O)c1O)N/N=C\c1ccc(O)c(O)c1O | 50.4 | > 100 | 84.5 | 22 | 54.9 | 12.8 | 3.59 | 49.9 | 17.6 | 78.1 | 19.2 | 11.9 | 56.3 | 57.4 | 3.65 | 29.1 |  | 52.3 | > 100
12 | N#CC(C#N)=c1c2ccccc2c(=C(C#N)C#N)c2ccccc12 |  | 44.4 | 32.9 | 43.3 | 39.5 | 82.8 | 40.1 | 59.2 | 30 | 32.9 | 55.4 | > 100 | 63.6 | > 100 | 43.7 | 65 | > 100 |  | 54.9
13 | CCC/C(Cl)=N/OC(NC(=O)OCC)(C(F)(F)F)C(F)(F)F | 45 |  | > 100 | 32.3 | 47.2 | 37.5 | 34.8 | 48.2 | 29.6 | 31.6 | > 100 | 71.4 | > 100 | 43.5 | 61.4 | 40.6 | 62.6 | 29.6 | > 100
14 | c1ccc(Cn2c(-c3ccc(-c4ccccc4)cc3)cc3ccccc32)cc1 | > 100 | > 100 | > 100 | > 100 | > 100 | > 100 | > 100 | > 100 | > 100 | > 100 | > 100 | > 100 | > 100 | > 100 | > 100 | > 100 |  | > 100 | 
